Test results published in patent US20220088146A1, “Melanocortin Receptor-Specific Peptide Formulations and Methods for Gastrointestinal Tract-Specific Delivery” (Palatin Technologies, Inc., priority 2018, published 2022).
Bridge positions count the residues as written; N and C are the ends. Square brackets hold non-standard residues; d marks the D form. Peptide text beside a SMILES is read from it. dPhe(3,4-F2) = N[C@H](Cc1ccc(F)c(F)c1)C(=O)O; dPhe(3-Cl) = N[C@H](Cc1cccc(Cl)c1)C(=O)O; dPhe(4-Cl) = N[C@H](Cc1ccc(Cl)cc1)C(=O)O; dPhe(4-Me) = Cc1ccc(C[C@@H](N)C(=O)O)cc1; dPhe(2-Cl) = N[C@H](Cc1ccccc1Cl)C(=O)O; dPhe(4-F) = N[C@H](Cc1ccc(F)cc1)C(=O)O; dPhe(2-F) = N[C@H](Cc1ccccc1F)C(=O)O; Nle = CCCC[C@H](N)C(=O)O; Orn = NCCC[C@H](N)C(=O)O; Dab = NCC[C@H](N)C(=O)O

These molecules were tested against hMC1r (Homo sapiens, UniProt Q01726) (assay: Assay for agonist activity: cAMP accumulation in HBL melanoma cells). Conditions: HBL, compared to NDP-α-MSH as 100%, read-out: MC-1 Emax (average; cAMP HBL).
Type: cell-based
Design: endogenous in cells; host or cells: HBL human melanoma cells
Method: 8.2 Assay for Agonist Activity.
Confluent HBL cells that express hMC1r or HEK-293 cells that express recombinant hMC4r were detached from culture plates by incubation in enzyme-free cell dissociation buffer. Dispersed cells were suspended in Earle's Balanced Salt Solution containing 10 mM HEPES (pH 7.5), 1 mM MgCl2, 1 mM glutamine, 0.5% albumin and 0.3 mM 3-isobutyl-1-methyl-xanthine (IBMX), a phosphodiesterase inhibitor. The cells were plated in 96-well plates at a density of 0.4×10^5 cells per well for HBL cells and 0.5×10^5 cells per well for HEK-293 cells and pre-incubated for 10 minutes. Cells were exposed for 15 minutes at 37° C. to peptides of the present invention dissolved in DMSO (final DMSO concentration of 1%) at a concentration range of 0.05-5000 nM in a total assay volume of 200 μL. […] Data analysis was performed by nonlinear regression analysis with Graph-Pad Prism® software.
All results are expressed in nM except for Emax values, which are percentage values. Peptides with the captioned primary sequence were synthesized and purified as described in Section 7 above, with the resulting peptide having the structure depicted.

hMC1r, sequence (Q01726 whole entry): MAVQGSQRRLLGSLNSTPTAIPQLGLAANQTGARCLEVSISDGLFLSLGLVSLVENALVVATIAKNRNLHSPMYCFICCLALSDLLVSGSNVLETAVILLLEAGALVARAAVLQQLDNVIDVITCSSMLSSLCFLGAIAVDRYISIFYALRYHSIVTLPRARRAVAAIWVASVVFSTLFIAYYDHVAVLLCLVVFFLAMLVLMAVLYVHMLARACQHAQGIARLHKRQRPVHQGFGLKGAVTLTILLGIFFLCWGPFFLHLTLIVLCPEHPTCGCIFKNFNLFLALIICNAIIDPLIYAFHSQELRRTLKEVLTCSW

Row | Emax | Compound
1 | 72% | CCCC[C@H](NC(C)=O)C(=O)N[C@H]1CCC(=O)NCC[C@@H](C(=O)N[C@@H](Cc2c[nH]c3ccccc23)C(N)=O)NC(=O)[C@H](C)NC(=O)[C@@H](Cc2ccccc2)NC(=O)[C@H](Cc2c[nH]cn2)NC1=O [Example 9.48, Ac-Nle-cyclo(Glu-His-D-Phe-Ala-Dab)-Trp-NH2]
2 | 102% | CCCC[C@H](NC(C)=O)C(=O)N[C@H]1CCC(=O)NCC[C@@H](C(N)=O)NC(=O)[C@H](CCCNC(=N)N)NC(=O)[C@@H](Cc2ccccc2)NC(=O)[C@H](CCCN)NC1=O [Example 9.56, Ac-Nle-cyclo(Glu-Orn-D-Phe-Arg-Dab)-NH2] (Ac-[Nle]E[Orn][dF]R[Dab]-NH2; lactam 2-6)
3 | 88% | CCCC[C@H](NC(C)=O)C(=O)N[C@H]1CCC(=O)NCC[C@@H](C(N)=O)NC(=O)[C@H](CCCNC(=N)N)NC(=O)[C@@H](Cc2ccccc2Cl)NC(=O)[C@H](CCCN)NC1=O [Example 9.57, Ac-Nle-cyclo(Glu-Orn-D-Phe(2-Cl)-Arg-Dab)-NH2] (Ac-[Nle]E[Orn][dPhe(2-Cl)]R[Dab]-NH2; lactam 2-6)
4 | 86% | CCCC[C@H](NC(C)=O)C(=O)N[C@H]1CCC(=O)NCC[C@@H](C(N)=O)NC(=O)[C@H](CCCNC(=N)N)NC(=O)[C@@H](Cc2cccc(Cl)c2)NC(=O)[C@H](CCCN)NC1=O [Example 9.58, Ac-Nle-cyclo(Glu-Orn-D-Phe(3-Cl)-Arg-Dab)-NH2] (Ac-[Nle]E[Orn][dPhe(3-Cl)]R[Dab]-NH2; lactam 2-6)
5 | 100% | CCCC[C@H](NC(C)=O)C(=O)N[C@H]1CCC(=O)NCC[C@@H](C(N)=O)NC(=O)[C@H](CCCNC(=N)N)NC(=O)[C@@H](Cc2ccc(Cl)cc2)NC(=O)[C@H](CCCN)NC1=O [Example 9.59, Ac-Nle-cyclo(Glu-Orn-D-Phe(4-Cl)-Arg-Dab)-NH2] (Ac-[Nle]E[Orn][dPhe(4-Cl)]R[Dab]-NH2; lactam 2-6)
6 | 95% | CCCC[C@H](NC(C)=O)C(=O)N[C@H]1CCC(=O)NCC[C@@H](C(N)=O)NC(=O)[C@H](CCCNC(=N)N)NC(=O)[C@@H](Cc2ccccc2F)NC(=O)[C@H](CCCN)NC1=O [Example 9.60, Ac-Nle-cyclo(Glu-Orn-D-Phe(2-F)-Arg-Dab)-NH2] (Ac-[Nle]E[Orn][dPhe(2-F)]R[Dab]-NH2; lactam 2-6)
7 | 102% | CCCC[C@H](NC(C)=O)C(=O)N[C@H]1CCC(=O)NCC[C@@H](C(N)=O)NC(=O)[C@H](CCCNC(=N)N)NC(=O)[C@@H](Cc2ccc(F)cc2)NC(=O)[C@H](CCCN)NC1=O [Example 9.61, Ac-Nle-cyclo(Glu-Orn-D-Phe(4-F)-Arg-Dab)-NH2] (Ac-[Nle]E[Orn][dPhe(4-F)]R[Dab]-NH2; lactam 2-6)
8 | 97% | CCCC[C@H](NC(C)=O)C(=O)N[C@H]1CCC(=O)NCC[C@@H](C(N)=O)NC(=O)[C@H](CCCNC(=N)N)NC(=O)[C@@H](Cc2ccc(F)c(F)c2)NC(=O)[C@H](CCCN)NC1=O [Example 9.62, Ac-Nle-cyclo(Glu-Orn-D-Phe(3,4-F)-Arg-Dab)-NH2] (Ac-[Nle]E[Orn][dPhe(3,4-F2)]R[Dab]-NH2; lactam 2-6)
9 | 96% | CCCC[C@H](NC(C)=O)C(=O)N[C@H]1CCC(=O)NCC[C@@H](C(N)=O)NC(=O)[C@H](CCCNC(=N)N)NC(=O)[C@@H](Cc2ccc(C)cc2)NC(=O)[C@H](CCCN)NC1=O [Example 9.63, Ac-Nle-cyclo(Glu-Orn-D-Phe(4-Me)-Arg-Dab)-NH2] (Ac-[Nle]E[Orn][dPhe(4-Me)]R[Dab]-NH2; lactam 2-6)
10 | 99% | CCCC[C@H](NC(C)=O)C(=O)N[C@H]1CCC(=O)NCC[C@@H](C(N)=O)NC(=O)[C@H](CCCNC(=N)N)NC(=O)[C@@H](Cc2ccc(OC)cc2)NC(=O)[C@H](CCCN)NC1=O [Example 9.64, Ac-Nle-cyclo(Glu-Orn-D-Phe(4-OMe)-Arg-Dab)-NH2] (Ac-[Nle]E[Orn][dY](Me)R[Dab]-NH2; lactam 2-6)
11 | 102% | CCCC[C@H](NC(C)=O)C(=O)N[C@H]1CCC(=O)NCC[C@@H](C(N)=O)NC(=O)[C@H](CCCNC(=N)N)NC(=O)[C@@H](Cc2ccccc2)NC(=O)[C@@H]2CCCN2C1=O [Example 9.65, Ac-Nle-cyclo(Glu-Pro-D-Phe-Arg-Dab)-NH2]
12 | 97% | CCCC[C@H](NC(C)=O)C(=O)N[C@H]1CCC(=O)NCC[C@@H](C(=O)N[C@@H](Cc2c[nH]c3ccccc23)C(N)=O)NC(=O)[C@H](CCCNC(=N)N)NC(=O)[C@@H](Cc2ccccc2)NC(=O)[C@H]2CCCN2C1=O [Example 9.66, Ac-Nle-cyclo(Glu-Pro-D-Phe-Arg-Dab)-Trp-NH2]

Further lines, the molecule ahead of its results:

Row | Compound | Emax
13 | CCCC[C@H](NC(C)=O)C(=O)N[C@H]1CCNC(=O)CCC(=O)NC[C@@H](C(=O)N[C@@H](Cc2c[nH]c3ccccc23)C(N)=O)NC(=O)[C@H](CCCNC(=N)N)NC(=O)[C@@H](Cc2ccccc2)NC(=O)[C@H](Cc2c[nH]cn2)NC1=O [Example 9.29, Ac-Nle-cyclo(Dab-His-D-Phe-Arg-Dap)-Trp-NH2] | 78%
14 | CCCC[C@H](NC(C)=O)C(=O)N[C@H]1CCC(=O)NCC[C@@H](C(=O)N[C@@H](Cc2cccc3ccccc23)C(N)=O)NC(=O)[C@H](CCCNC(=N)N)NC(=O)[C@@H](Cc2ccccc2)NC(=O)[C@H](Cc2c[nH]cn2)NC1=O [Example 9.30, Ac-Nle-cyclo(Glu-His-D-Phe-Arg-Dab)-Nal 1-NH2] | 72%
15 | CCCC[C@H](NC(C)=O)C(=O)N[C@H]1CCC(=O)NCC[C@@H](C(N)=O)NC(=O)[C@H](CCCNC(=N)N)NC(=O)[C@@H](Cc2ccccc2)NC(=O)[C@H](Cc2c[nH]cn2)NC1=O [Example 9.32, Ac-Nle-cyclo(Glu-His-D-Phe-Arg-Dab)-NH2] | 85%
16 | CCCC[C@H](NC(C)=O)C(=O)N[C@H]1CCC(=O)NCC[C@@H](C(N)=O)NC(=O)[C@H](C)NC(=O)[C@@H](Cc2ccccc2)NC(=O)[C@H](Cc2c[nH]cn2)NC1=O [Example 9.33, Ac-Nle-cyclo(Glu-His-D-Phe-Ala-Dab)-NH2] | 73%
17 | CCCC[C@H](NC(C)=O)C(=O)N[C@H]1CCC(=O)NCC[C@@H](C(=O)N[C@@H](Cc2c[nH]c3ccccc23)C(N)=O)NC(=O)CNC(=O)[C@@H](Cc2ccccc2)NC(=O)[C@H](Cc2c[nH]cn2)NC1=O [Example 9.34, Ac-Nle-cyclo(Glu-His-D-Phe-Gly-Dab)-Trp-NH2] (Ac-[Nle]EH[dF]G[Dab]W-NH2; lactam 2-6) | 59%
18 | CCCC[C@H](NC(C)=O)C(=O)N[C@H]1CCC(=O)NCC[C@@H](C(=O)N[C@@H](Cc2c[nH]c3ccccc23)C(N)=O)NC(=O)[C@H](CCCNC(=N)N)NC(=O)[C@@H](Cc2ccccc2)NC(=O)[C@H](C)NC1=O [Example 9.36, Ac-Nle-cyclo(Glu-Ala-D-Phe-Arg-Dab)-Trp-NH2] | 86%
19 | CCCC[C@H](NC(C)=O)C(=O)N[C@H]1CCC(=O)NCC[C@@H](C(=O)N[C@@H](Cc2c[nH]c3ccccc23)C(N)=O)NC(=O)[C@H](CCCNC(=N)N)NC(=O)[C@@H](Cc2ccccc2)NC(=O)[C@H](CCCNC(=N)N)NC1=O [Example 9.37, Ac-Nle-cyclo(Glu-Arg-D-Phe-Arg-Dab)-Trp-NH2] | 100%
20 | CCCC[C@H](NC(C)=O)C(=O)N[C@H]1CCC(=O)NCC[C@@H](C(=O)N[C@@H](Cc2c[nH]c3ccccc23)C(N)=O)NC(=O)[C@H](CCCNC(=N)N)NC(=O)[C@@H](Cc2ccccc2)NC(=O)[C@H](CCCNC(N)=O)NC1=O [Example 9.38, Ac-Nle-cyclo(Glu-Cit-D-Phe-Arg-Dab)-Trp-NH2] | 97%
21 | CCCC[C@H](NC(C)=O)C(=O)N[C@H]1CCC(=O)NCC[C@@H](C(=O)N[C@@H](CCCCN)C(N)=O)NC(=O)[C@H](CCCNC(=N)N)NC(=O)[C@@H](Cc2ccccc2)NC(=O)[C@H](Cc2c[nH]cn2)NC1=O [Example 9.39, Ac-Nle-cyclo(Glu-His-D-Phe-Arg-Dab)-Lys-NH2] | 91%
22 | CCCC[C@H](NC(C)=O)C(=O)N[C@H]1CCC(=O)NCC[C@@H](C(=O)N[C@@H](Cc2c[nH]c3ccccc23)C(N)=O)NC(=O)[C@H](CCCNC(=N)N)NC(=O)[C@@H](Cc2ccccc2)NC(=O)[C@H](CCCCN)NC1=O [Example 9.40, Ac-Nle-cyclo(Glu-Lys-D-Phe-Arg-Dab)-Trp-NH2] | 108%
23 | CCCC[C@H](NC(C)=O)C(=O)N[C@H]1CCC(=O)NCC[C@@H](C(=O)N[C@@H](Cc2c[nH]c3ccccc23)C(N)=O)NC(=O)[C@H](CCCNC(=N)N)NC(=O)[C@@H](Cc2ccccc2)NC(=O)[C@H](CCN)NC1=O [Example 9.41, Ac-Nle-cyclo(Glu-Dab-D-Phe-Arg-Dab)-Trp-NH2] | 108%
24 | CCCC[C@H](NC(C)=O)C(=O)N[C@H]1CCC(=O)NCC[C@@H](C(=O)N[C@@H](Cc2c[nH]c3ccccc23)C(N)=O)NC(=O)[C@H](CCCNC(=N)N)NC(=O)[C@@H](Cc2ccccc2)NC(=O)[C@H](CCCN)NC1=O [Example 9.42, Ac-Nle-cyclo(Glu-Orn-D-Phe-Arg-Dab)-Trp-NH2] | 109%
25 | CCCC[C@H](NC(C)=O)C(=O)N[C@H]1CCC(=O)NCC[C@@H](C(N)=O)NC(=O)[C@@H](Cc2ccccc2)NC(=O)[C@H](Cc2c[nH]cn2)NC1=O [Example 9.46, Ac-Nle-cyclo(Glu-His-D-Phe-Dab)-NH2] (Ac-[Nle]EH[dF][Dab]-NH2; lactam 2-5) | 51%
